# US8968771B2, “Articles and methods for applying antimicrobial protection” (Coeus Technology, Inc., priority 2011, dated 2015)
# Assay: Polymerization / stability of the molecule in solution with water
# Type: physicochemical
# Conditions: industrially-available preparation placed in solution with water
# Text: Solutions of industrially-available preparations (e.g. 3-(trihydroxysilyl) propyldimethyloctadecyl ammonium chloride) were placed in solution with water. It was discovered that at higher concentrations (e.g. at or above about 3 to 4 percent weight/volume) the molecules polymerize to an unsatisfactory degree, making a stable solution either impossible or heavier and unsuitable for saturating a wipe-type substrate or spraying onto a surface or substrate. […] These solutions remain stable in impregnated or saturated substrates (e.g. wipes in a liquid-tight containers) or in a bottle or other container for the solution. […] When the substrate is used to wipe, the solution with the solute remains on the wiped surface in a layer. As the solvent is dried, by evaporation or otherwise, the solute remains in a dry physical layer that remains to physically combat microbes.
compound,measurement,value
CCCCCCCCCCCCCCCCCC[N+](C)(C)CCC[Si](O)(O)O.[Cl-] [3-(trihydroxysilyl) propyldimethyloctadecyl ammonium chloride],Concentration in water at which the molecules polymerize to an unsatisfactory degree,3 to 4 percent weight/volume
